This is an account of results in patent publication US6225334A (priority 1996, dated 2001).

Read-outs that look alike come from different tables or passages of the source.

For data set [1], the system named is Phytophthora infestans. Type of data set: in vivo. As to conditions: 3 days after the inoculation, tomato, protective.
Data set [2] can be described thus: logP (HPLC). Type of data set: physicochemical.
The test system of data set [3] is greenhouse red spider mite (Tetranychus urticae). Kind of data set: Tetranychus-Test (OP-resistant/dip treatment). As to conditions: 168 h, read-out: kill.
Method: 7.5 parts by weight of dimethylformamide
100 parts by weight of methanol
Emulsifier: 2.5 parts by weight of alkylaryl polyglycol ether
After the desired period of time, the activity in % is determined. 100% means that all spider mites have been killed; 0% means that none of the spider mites have been killed.
The subject of data set [4] is beet army-worm (Spodoptera frugiperda). Briefly: Spodoptera test. In kind it is in vivo. To be noted: 216 h, active compound concentration of 0.05%, after 9 days, larvae L2-L3 on synthetic feed, read-out: kill. How it is done: 100 parts by weight of acetone
1900 parts by weight of methanol
A stated amount of the preparation of active compound of the desired concentration is pipetted onto a standardized amount of synthetic feed. In 3 replications, one larva (L2 -L3) each of the beet army-worm (Spodoptera frugiperda) is placed on the feed.
After the desired period of time, the kill in % is determined.

In data set [5] the test system is Plasmopara viticola. Briefly: Plasmopara-Test (Grapevines)/protective. Type of data set: in vivo. To be noted: application rate of 50 g/ha, 6 days after the inoculation, protective.
[6] abbreviates: first of two values printed (x/y).

In the case of `COc1ccc(CCNC(=O)C(=NOC(C)=O)c2ccc3c(c2)CCCC3)cc1OC` [Example I-1, N-[(3,4-dimethoxyphenyl)-2-ethyl]-2-acetoxyimino-2-(2-tetrahydronaphthyl)-acetamide], in data set [1] (application rate of 50 g/ha), the “efficacy compared to the untreated control” value stood at 95%.
Usually chromatographic logP stands for lipophilicity estimated from chromatographic retention. Low readings indicate a more hydrophilic compound, high ones a more lipophilic compound. On to `CCOC(=O)ON=C(C(=O)NCCc1ccc(OC)c(OC)c1)c1ccc2c(c1)CCCC2` [Example I-3], for which the values for the chromatographic logP in data set [2] (setting [6]) and in data set [2] (second of two values) were 3.19 and 3.55, respectively.
Taken in the same sequence, the figures for `COc1ccc(CCNC(=O)C(=NOC(=O)OC(C)C)c2ccc3c(c2)CCCC3)cc1OC` [Example I-4] were 3.55 and 3.84.
Regarding `COc1ccc(CCNC(=O)C(=NOC(=O)Oc2ccccc2)c2ccc3c(c2)CCCC3)cc1OC` [Example I-5], the results for the chromatographic logP in data set [2] (setting [6]) and in data set [2] (second of two values) were 3.82 and 4.09, respectively.
For `COc1ccc(CCNC(=O)C(=NOC(=O)OC2CCCCC2)c2ccc3c(c2)CCCC3)cc1OC` [Example I-6], the chromatographic logP in data set [2] (setting [6]) was 4.2; in data set [2] (second of two values), 4.62.
The corresponding values for `COc1ccc(CCNC(=O)C(=NOC(=O)c2ccccc2)c2ccc3c(c2)CCCC3)cc1OC` [Example I-7] are 3.69 and 4.1.
Consider `CCOC(=O)ON=C(C(=O)NCCc1ccc(OC)c(OC)c1)c1ccc(Br)cc1` [Example I-10], for which, in data set [2] (single value given), the chromatographic logP is 3.19.
On to `COC(=O)ON=C(C(=O)NCCc1ccc(OC)c(OC)c1)c1ccc2c(c1)CCC2` [Example I-11], for which the chromatographic logP in data set [2] (setting [6]) was 2.78; in data set [2] (second of two values), 2.97.
For `COc1ccc(CCNC(=O)C(=NOC(C)=O)c2ccc3c(c2)CCC3)cc1OC` [Example I-12], the chromatographic logP in data set [2] (setting [6]) is 2.65; in data set [2] (second of two values), 2.87.
On to `CCOC(=O)ON=C(C(=O)NCCc1ccc(OC)c(OC)c1)c1ccc2c(c1)CCC2` [Example I-13], for which the chromatographic logP in data set [2] (setting [6]) came out at 3.04; in data set [2] (second of two values), 3.27.
Consider `CCc1ccc(C(=NOC(=O)OC)C(=O)NCCc2ccc(OC)c(OC)c2)cc1` [Example I-14], for which the mortality at 0.05 % in data set [3] turned out to be 100%. In addition, the chromatographic logP came to 2.73 in data set [2] (setting [6]) and 2.94 in data set [2] (second of two values).
For `CCOC(=O)ON=C(C(=O)NCCc1ccc(OC)c(OC)c1)c1ccc(CC)cc1` [Example I-15], the chromatographic logP in data set [2] (single value given) came to 2.98.
For the compound `CCc1ccc(C(=NOC(C)=O)C(=O)NCCc2ccc(OC)c(OC)c2)cc1` [Example I-16], the chromatographic logP in data set [2] (setting [6]) was 2.42; in data set [2] (second of two values) it was 2.6.
Turning to `CCON=C(C(=S)NCCc1ccc(OC)c(OC)c1)c1ccc(Cl)cc1` [Example II-1, N-[2-(3,4-dimethoxyphenyl)-ethyl]-2-ethoximino-2-(4-chlorophenyl)-thioacetamide], the chromatographic logP is 3.73 in data set [2] (e isomer) and 4.03 in data set [2] (z isomer).
Turning to `CCON=C(C(=O)NCCc1ccc(OC)c(OC)c1)c1ccc(Cl)cc1` [Example II-II-1], the figures for the chromatographic logP in data set [2] (e isomer) and in data set [2] (z isomer) were 3.07 and 3.34, respectively.
With `CCON=C(C(=O)NCCc1ccc(OC)c(OC)c1)c1ccc2c(c1)OCC2` [Example III-1, N-[2-(3,4dimethoxyphenyl)-ethyl]-2-(2,3-dihydrobenzofuran-6-yl)2-ethoximino-acetamide], the “efficacy compared to the untreated control” value in data set [1] (application rate of 500 g/ha) is 95%.
On to `CCON=C(C(=O)NCCc1ccc(OC)c(OC)c1)c1ccc2c(c1)Cc1ccccc1C2` [Example IV-1], for which the figures for the chromatographic logP in data set [2] (e isomer) and in data set [2] (z isomer) were 3.62 and 4, respectively.
For `CCON=C(C(=S)NCCc1ccc(OC)c(OC)c1)c1ccc2c(c1)CCCC2` [II-2], the chromatographic logP in data set [2] (setting [6]) turned out to be 4.13; in data set [2] (second of two values), 4.41.
The corresponding values for `CON=C(C(=S)NCCc1ccc(OC)c(OC)c1)c1ccc(C)cc1` [II-3] are 3.15 and 3.41.
As to `CCc1ccc(C(=NOC)C(=S)NCCc2ccc(OC)c(OC)c2)cc1` [II-4], the mortality at 0.05 % in data set [4] is 100%. In addition, the chromatographic logP was 3.5 in data set [2] (setting [6]) and 3.77 in data set [2] (second of two values).
As to `CCON=C(C(=S)NCCc1ccc(OC)c(OC)c1)c1ccc(Br)cc1` [II-5], the chromatographic logP was 3.82 in data set [2] (setting [6]) and 4.14 in data set [2] (second of two values).
Take `CON=C(C(=S)NCCc1ccc(OC)c(OC)c1)c1ccc(Br)cc1` [II-6]: the “efficacy compared to the untreated control” value in data set [5] was determined as 89%. Further, the chromatographic logP in data set [2] (setting [6]) turned out to be 3.5; in data set [2] (second of two values), 3.8.
Turning to `CCON=C(C(=S)NCCc1ccc(OC)c(OC)c1)c1cccc(CC)c1` [II-8], the chromatographic logP in data set [2] (setting [6]) came out at 3.82; in data set [2] (second of two values) it was 4.09.
The corresponding values for `CCON=C(C(=S)NCCc1ccc(OC)c(OC)c1)c1ccc2c(c1)CCC2` [II-10] are 3.87 and 4.13.
Taken in the same sequence, the figures for `CON=C(C(=O)NCCc1ccc(OC)c(OC)c1)c1ccc2c(c1)OCC2` [III-2] were 2.24 and 2.46.
Turning to `CON=C(C(=O)NCCc1ccc(OC)c(OC)c1)c1ccc2c(c1)CCc1ccccc1C2` [IV-2], the “efficacy compared to the untreated control” value in data set [1] (application rate of 50 g/ha) stood at 96%. For the same compound, the chromatographic logP is 3.61 in data set [2] (setting [6]) and 3.87 in data set [2] (second of two values).
As for `CCON=C(C(=O)NCCc1ccc(OC)c(OC)c1)c1ccc2c(c1)CCc1ccccc1C2` [IV-3], in data set [1] (application rate of 50 g/ha), the “efficacy compared to the untreated control” value was found to be 96%. Moreover, the chromatographic logP in data set [2] (setting [6]) stood at 3.91; in data set [2] (second of two values), 4.2.
As for `CON=C(C(=O)NCCc1ccc(OC)c(OC)c1)c1ccc2c(c1)Cc1ccccc1C2` [IV-4], the chromatographic logP in data set [2] (setting [6]) was found to be 3.31; in data set [2] (second of two values), 3.68.
